Patent publication US20260242395A1, “AMINOHETEROARYL KINASE INHIBITORS” (ALLORION THERAPEUTICS INC, priority 2022, published 2026)

Legend:
Assay type in all cases: biochemical
[1] = molecular target: T1, CDK6/CyclinD3 (Homo sapiens, UniProt Q00534); assay: CDK6/CyclinD3 kinase inhibitory activity (Caliper mobility shift); settings: enzyme 15 nM, ATP 800 μM, 28° C. 30 min; read-out: CDK6/Cyclin D3 IC50
T1 construct: purchased Carna 04-107
How it was run: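 Compound preincubated 10 min at room temperature with CDK6/CyclinD3 (15 nM final) in HEPES pH 7.5/MgCl2/DTT buffer; reaction with 5-FAM peptide (3000 nM) and ATP 800 μM, 30 min at 28°C, stopped with EDTA. Substrate/product separated by microfluidic mobility shift; % conversion converted to % inhibition, IC50 from dose-response curves.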

[2] = molecular target: T2, CDK2/CyclinE1 (Homo sapiens, UniProt P24941); assay: CDK2/CyclinE1 kinase inhibitory activity (Caliper mobility shift); settings: enzyme 3 nM, ATP 77 μM, 28° C. 30 min; read-out: CDK2/Cyclin E1 IC50
T2 construct: purchased Carna 04-165
Procedure: CDK2/CyclinE1 kinase inhibitory activity (IC50): 5 μl of various dilutions of test compounds in 1×kinase buffer (50 mM HEPES pH 7.5, 10 mM MgCl2, 2 mM DTT and […] Brij-35) were mixed with 10 μL of CDK2/CyclinE1 (Carna, 04-165 #, final concentration 3 nM in 1×Kinase buffer) in 384 plates and incubated at room temperature for 10 min. To initiate each reaction, 10 μL of peptide solution containing fluorescently-labeled-peptide 18(5-FAM-QSPKKG-CONH2) (GL, 114202 #, final concentration 3000 nM) and ATP (final concentration 77 μM) in 1×Kinase buffer was added to each of the wells containing test compound and CDK2/CyclinE1 mixture. The reaction was then allowed to proceed at 28° C. for 30 min and terminated by the addition of 25 μL stop buffer (100 mM HEPES pH 7.5, 50 mM EDTA, 0.2% Coating Reagent #3 (Perkin Elmer, 760050 #) and 0.015% Brij-35).
(§1) Following the kinase reaction, Caliper EZ reader II (Downstream voltages: −500V, Upstream voltages: −2250V, Base pressure −0.5 PSI, Screen pressure −1.2 PSI) was used to separate the phosphorylated (product) and the unphosphorylated (substrate) fluorescently-labeled peptide 18 based on their different mobility. Both substrate and product were measured and the ratio of these values were used to generate % conversion by Caliper EZ reader II. These conversion values were then transformed into % inhibition of kinase activity using the formula: % Inhibition=[(MA−X)/(MA−MI)]×100% where MA=conversion value of DMSO only controls, MI=conversion value of no enzyme controls and X=conversion value at any given compound dose. IC50 values were then calculated by plotting dose-response curves and then using the XLfit application in Excel software.

[3] = molecular target: T3, CDK7/CyclinH/MAT1 (Homo sapiens, UniProt P50613); assay: CDK7/CyclinH/MAT1 kinase inhibitory activity (Caliper mobility shift); settings: enzyme 12.5 nM, ATP 70 μM, 28° C. 30 min; read-out: CDK7/Cyclin H/MAT1 IC50
T3 construct: purchased Millipore 14-476M
T3 sequence (P50613 whole entry): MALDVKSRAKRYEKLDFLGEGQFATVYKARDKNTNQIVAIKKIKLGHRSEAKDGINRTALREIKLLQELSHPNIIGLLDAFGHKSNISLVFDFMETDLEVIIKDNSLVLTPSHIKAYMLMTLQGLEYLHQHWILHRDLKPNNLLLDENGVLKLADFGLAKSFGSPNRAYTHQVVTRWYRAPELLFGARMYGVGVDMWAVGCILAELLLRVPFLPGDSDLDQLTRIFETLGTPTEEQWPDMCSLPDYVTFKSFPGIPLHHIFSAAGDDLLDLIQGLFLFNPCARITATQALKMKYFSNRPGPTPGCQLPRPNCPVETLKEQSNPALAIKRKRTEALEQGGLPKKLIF
T3 sequence (P51946 whole entry partner): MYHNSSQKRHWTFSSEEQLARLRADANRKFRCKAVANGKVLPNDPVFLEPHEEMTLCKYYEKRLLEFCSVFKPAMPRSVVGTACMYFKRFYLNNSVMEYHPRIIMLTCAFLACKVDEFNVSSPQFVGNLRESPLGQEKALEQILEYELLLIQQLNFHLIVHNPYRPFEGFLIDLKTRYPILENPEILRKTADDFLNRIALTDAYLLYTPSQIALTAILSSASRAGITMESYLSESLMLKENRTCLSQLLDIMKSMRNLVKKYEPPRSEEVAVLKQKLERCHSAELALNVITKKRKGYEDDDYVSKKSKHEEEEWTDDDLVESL
T3 sequence (P51948 whole entry partner): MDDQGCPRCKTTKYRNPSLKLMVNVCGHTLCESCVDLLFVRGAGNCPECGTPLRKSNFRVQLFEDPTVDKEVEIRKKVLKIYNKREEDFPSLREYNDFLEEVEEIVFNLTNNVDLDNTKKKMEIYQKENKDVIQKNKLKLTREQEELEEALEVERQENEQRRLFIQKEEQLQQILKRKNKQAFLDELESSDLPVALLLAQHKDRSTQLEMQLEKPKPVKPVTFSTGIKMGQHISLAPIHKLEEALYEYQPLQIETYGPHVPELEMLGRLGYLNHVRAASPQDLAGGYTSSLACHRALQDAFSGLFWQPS
Procedure: CDK7/CyclinH/MAT1 kinase inhibitory activity (IC50): 5 μl of various dilutions of test compound in 1× kinase buffer (20 mM HEPES, pH 7.5, 10 mM MgCl2, 2 mM DTT and 0.01% Triton X-100) was mixed with 10 μL of CDK7/CyclinH/MAT1 (Millipore, 14-476M #, final concentration 12.5 nM in 1× Kinase buffer) in 384 plates and incubated at room temperature for 10 min. To initiate each reaction, 10 μL of peptide solution containing fluorescently-labeled-peptide CTD3 (5-FAM-[…], GL, SY346885 #, final concentration 3000 nM) and ATP (final concentration 70 μM) in 1× Kinase buffer was added to each of the wells containing test compound and CDK7/CyclinH/MAT1 mixture. The reaction is then allowed to proceed at 28° C. for 30 min and terminated by the addition of 25 μL stop buffer (100 mM HEPES pH 7.5, 50 mM EDTA, 0.2% Coating Reagent #3 (Perkin Elmer, 760050 #) and 0.015% Brij-35).
as §1, with “the phosphoiylated” for “the phosphorylated”, “peptide CTD3” for “peptide 18”

T1 sequence (Q00534 whole entry): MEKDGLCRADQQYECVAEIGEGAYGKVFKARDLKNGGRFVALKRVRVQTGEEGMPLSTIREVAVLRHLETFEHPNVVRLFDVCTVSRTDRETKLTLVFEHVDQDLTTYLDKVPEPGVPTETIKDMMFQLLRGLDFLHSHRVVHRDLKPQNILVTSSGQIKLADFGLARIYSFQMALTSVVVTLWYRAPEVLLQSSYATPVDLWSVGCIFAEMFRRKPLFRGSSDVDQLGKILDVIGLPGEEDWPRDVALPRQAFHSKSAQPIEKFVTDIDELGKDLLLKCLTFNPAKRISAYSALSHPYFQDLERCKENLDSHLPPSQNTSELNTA
T1 sequence (P30281 whole entry partner): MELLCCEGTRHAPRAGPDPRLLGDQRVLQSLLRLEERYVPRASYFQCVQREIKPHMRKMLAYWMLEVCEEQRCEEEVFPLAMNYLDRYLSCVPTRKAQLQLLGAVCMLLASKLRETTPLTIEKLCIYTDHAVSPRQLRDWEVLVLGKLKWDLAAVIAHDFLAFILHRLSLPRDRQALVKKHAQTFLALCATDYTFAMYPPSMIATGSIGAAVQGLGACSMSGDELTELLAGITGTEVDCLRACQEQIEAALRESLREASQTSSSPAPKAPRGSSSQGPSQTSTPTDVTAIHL

| Compound | IC50 [1] | IC50 [2] | IC50 [3] |
| --- | --- | --- | --- |
| CNC(C)(C)c1cnc2c(F)cc(-c3nc(N[C@@H]4CCOC[C@H]4O)ncc3Cl)cc2c1 [Example 36] | 100 to 1000 nM | 100 to 1000 nM | ≥ 1000 nM |
| O[C@@H]1COCC[C@H]1Nc1ncc(Cl)c(-c2cc(F)c3ncc4c(c3c2)CNC2(CC2)C4)n1 [Example 21, (3S,4R)-4-((5-chloro-4-(7-fluoro-1,4-dihydro-2H-spiro[benzo[c][2,6]naphthyridine-3,1′-cyclopropan]-9-yl)pyrimidin-2-yl)amino)tetrahydro-2H-pyran-3-ol] | 100 to 1000 nM | 100 to 1000 nM | ≥ 1000 nM |
| CNC(C)c1cnc2c(F)cc(-c3nc(N[C@@H]4CCOC[C@H]4O)ncc3Cl)cc2c1 (single isomer, unassigned) [Example 32a] | 100 to 1000 nM | 10 to 100 nM | ≥ 1000 nM |
| CC(C)(O)c1cnc2c(F)cc(-c3nc(N[C@@H]4CCOC[C@H]4O)ncc3F)cc2c1Cl [Example 22, (3S,4R)-4-((4-(4-chloro-8-fluoro-3-(2-hydroxypropan-2-yl)quinolin-6-yl)-5-fluoropyrimidin-2-yl)amino)tetrahydro-2H-pyran-3-ol] | 10 to 100 nM | 100 to 1000 nM | 100 to 1000 nM |
| Cc1nc2c(F)cc(-c3nc(N[C@@H]4CCOC[C@H]4O)ncc3Cl)cc2c2c1CC(C)(C)NC2 [Example 98] | 100 to 1000 nM | 100 to 1000 nM | ≥ 1000 nM |
| Cc1nc2c(F)cc(-c3nc(N[C@@H]4CCOC[C@H]4O)ncc3Cl)cc2c2c1CCN(C)C2 [Example 37] | 100 to 1000 nM | ≥ 1000 nM | ≥ 1000 nM |
| Cc1nc2c(F)cc(-c3nc(N[C@@H]4CCOC[C@H]4O)ncc3Cl)cc2c(C)c1[C@H](C)O (single isomer, unassigned) [Example 15b] | 10 to 100 nM | 100 to 1000 nM | 100 to 1000 nM |
| CC(C)(O)c1cnc2c(F)cc(-c3nc(N[C@@H]4CCOC[C@H]4O)ncc3Cl)cc2c1 [Example 1, (3S,4R)-4-((5-chloro-4-(8-fluoro-3-(2-hydroxypropan-2-yl)quinolin-6-yl)pyrimidin-2-yl)amino)tetrahydro-2H-pyran-3-ol] | 100 to 1000 nM | ≥ 1000 nM | ≥ 1000 nM |
| [2H]c1nc2c(F)cc(-c3nc(N[C@@H]4CCOC[C@H]4O)ncc3C)cc2c2c1CC1(CC1)NC2 [Example 67] | ≥ 1000 nM | ≥ 1000 nM | ≥ 1000 nM |
| Cc1c(C(C)(C)O)cnc2c(F)cc(-c3nc(N[C@@H]4CCOC[C@H]4O)ncc3Cl)cc12 [Example 7, (3S,4R)-4-((5-chloro-4-(8-fluoro-3-(2-hydroxypropan-2-yl)-4-methylquinolin-6-yl)pyrimidin-2-yl)amino)tetrahydro-2H-pyran-3-ol] | 10 to 100 nM | 100 to 1000 nM | ≥ 1000 nM |
| [2H]c1nc(N[C@@H]2CCOC[C@H]2O)nc(-c2cc(F)c3nc([2H])c4c(c3c2)CNC2(CC2)C4)c1Cl [Example 68] | 10 to 100 nM | 100 to 1000 nM | 100 to 1000 nM |
| [2H]c1nc2c(F)cc(-c3nc(N[C@@H]4CCOC[C@H]4O)ncc3C)cc2c2c1CC(C)(C)NC2 [Example 102] | 100 to 1000 nM | ≥ 1000 nM | ≥ 1000 nM |
| O[C@@H]1COCC[C@H]1Nc1ncc(Cl)c(-c2cc(F)c3ncc(C4(O)CC4)cc3c2)n1 [Example 29] | 100 to 1000 nM | 100 to 1000 nM | ≥ 1000 nM |
| Cc1c(C(C)O)cnc2c(F)cc(-c3nc(N[C@@H]4CCOC[C@H]4O)ncc3Cl)cc12 (single isomer, unassigned) [Example 88a] | 10 to 100 nM | 100 to 1000 nM | 100 to 1000 nM |
| [2H]c1nc2c(F)cc(-c3nc(N[C@@H]4CCOC[C@H]4O)ncc3F)cc2c(C)c1C(C)(C)O [Example 94] | 10 to 100 nM | 100 to 1000 nM | 10 to 100 nM |
| CC1(C)Cc2cnc3c(F)cc(-c4nc(N[C@@H]5CCOC[C@H]5O)ncc4F)cc3c2CN1 [Example 24, (3S,4R)-4-((5-fluoro-4-(7-fluoro-3,3-dimethyl-1,2,3,4-tetrahydrobenzo[c][2,6]naphthyridin-9-yl)pyrimidin-2-yl)amino)tetrahydro-2H-pyran-3-ol] | 10 to 100 nM | 10 to 100 nM | 100 to 1000 nM |
| CC(C)(N)c1cnc2ccc(-c3nc(N[C@@H]4CCOC[C@H]4O)ncc3Cl)cc2c1 [Example 26] | ≥ 1000 nM | 100 to 1000 nM | ≥ 1000 nM |
| CC(C)(N)c1cnc2c(F)cc(-c3nc(N[C@@H]4CCOC[C@H]4O)ncc3Cl)cc2c1 [Example 14, (3S,4R)-4-((4-(3-(2-aminopropan-2-yl)-8-fluoroquinolin-6-yl)-5-chloropyrimidin-2-yl)amino)tetrahydro-2H-pyran-3-ol] | 100 to 1000 nM | 10 to 100 nM | 100 to 1000 nM |
| Cc1nc2c(F)cc(-c3nc(N[C@@H]4CCOC[C@H]4O)ncc3F)cc2c(C)c1C(C)O (single isomer, unassigned) [Example 81b] | 10 to 100 nM | 100 to 1000 nM | 100 to 1000 nM |
| [2H]c1nc(N[C@@H]2CCOC[C@H]2O)nc(-c2cc(F)c3nc(C)c(C(C)(C)O)cc3c2)c1F [Example 83] | 100 to 1000 nM | 100 to 1000 nM | 100 to 1000 nM |
| Cc1c(C(C)NC2CC2)cnc2c(F)cc(-c3nc(N[C@@H]4CCOC[C@H]4O)ncc3Cl)cc12 (single isomer, unassigned) [Example 91b] | 100 to 1000 nM | 100 to 1000 nM | ≥ 1000 nM |
| CC1Cc2cnc3c(F)cc(-c4nc(N[C@@H]5CCOC[C@H]5O)ncc4Cl)cc3c2CN1 (single isomer, unassigned) [Example 34a] | 10 to 100 nM | 10 to 100 nM | 100 to 1000 nM |
| CC1(C)Cc2cnc3c(F)cc(-c4ccnc(N[C@@H]5CCOC[C@H]5O)n4)cc3c2CN1 [Example 107] | 100 to 1000 nM | 100 to 1000 nM | 100 to 1000 nM |
| Cc1nc2c(F)cc(-c3nc(N[C@@H]4CCOC[C@H]4O)ncc3Cl)cc2cc1C(C)(C)O [Example 5, (3S,4R)-4-((5-chloro-4-(8-fluoro-3-(2-hydroxypropan-2-yl)-2-methylquinolin-6-yl)pyrimidin-2-yl)amino)tetrahydro-2H-pyran-3-ol] | 100 to 1000 nM | 100 to 1000 nM | ≥ 1000 nM |
| CC1Cc2cnc3c(F)cc(-c4nc(N[C@@H]5CCOC[C@H]5O)ncc4Cl)cc3c2CN1 (single isomer, unassigned) [Example 34b] | 100 to 1000 nM | 100 to 1000 nM | ≥ 1000 nM |
| O[C@@H]1COCC[C@H]1Nc1cc(-c2cc(F)c3ncc4c(c3c2)CNCC4)c(Cl)cn1 [Example 25] | 10 to 100 nM | 10 to 100 nM | 10 to 100 nM |
| CNC(C)c1cc2cc(-c3nc(N[C@@H]4CCOC[C@H]4O)ncc3Cl)cc(F)c2nc1C (single isomer, unassigned) [Example 45b] | 100 to 1000 nM | ≥ 1000 nM | ≥ 1000 nM |
| Cc1nc2c(F)cc(-c3nc(N[C@@H]4CCOC[C@H]4O)ncc3F)cc2c2c1CC1(CC1)NC2 [Example 65] | 100 to 1000 nM | 100 to 1000 nM | 100 to 1000 nM |
